Source: US11773096B2, “Small-molecule PI5P4K alpha/beta inhibitors and methods of treatment using same” (YALE UNIVERSITY, priority 2018, dated 2023)
pKd, pKi: −log10 of the molar value. “Also recorded” adds a separate entry of the source.

Experiments:
C2Cl2 myotubes = assay: Immunoblot analysis of signaling in C2Cl2 myotubes; format: cell-based, mouse; details: FIG. 3E
Method: BT-474 and MCF7 breast cancer cells, C2Cl2 mouse myoblast cells, and HEK 293T cells were maintained in high-glucose DMEM medium containing 10% FBS. L6 rat myoblast cells were maintained in α-MEM medium containing 10% FBS. For differentiation into myotubes, C2Cl2 cells were kept in DMEM medium containing 2% horse serum for 5 days, and L6 cells were kept in α-MEM medium containing 2% FBS for 7 days. Amino-acid-free DMEM medium was prepared using powder from USBio, and MEM amino acids solution was from Gibco. Media were all supplemented with 100 U/ml penicillin/streptomycin. Cell lines were purchased from ATCC.
(§1) After wash with cold DPBS buffer, cells were lysed in RIPA buffer that contained 50 mM Tris-HCl pH 8.0, 150 mM NaCl, 1 mM EDTA, 1 mM EGTA, 1% NP-40, 0.5% sodium deoxycholate, 0.1% SDS, and protease and phosphatase inhibitor cocktails (Roche). Total protein concentrations were measured using a BCA assay (Thermo scientific). Cell lysate (about 80 μg protein) was resolved by SDS-PAGE and blotted onto PVDF membranes. The membranes were probed overnight at 4° C. with appropriate primary antibodies (Cell Signaling Technology) and incubated with secondary fluorescent antibodies (LI-COR Biosciences) for 1 hr at room temperature before imaging by an Odyssey CLx system.

PI5P4Kβ = target: T1, PI5P4Kβ (Homo sapiens, UniProt P78356); assay: PI5P4Kβ kinase assay, 32P-labelled PI(4,5)P2 product resolved by TLC
T1 sequence (P78356 1-416): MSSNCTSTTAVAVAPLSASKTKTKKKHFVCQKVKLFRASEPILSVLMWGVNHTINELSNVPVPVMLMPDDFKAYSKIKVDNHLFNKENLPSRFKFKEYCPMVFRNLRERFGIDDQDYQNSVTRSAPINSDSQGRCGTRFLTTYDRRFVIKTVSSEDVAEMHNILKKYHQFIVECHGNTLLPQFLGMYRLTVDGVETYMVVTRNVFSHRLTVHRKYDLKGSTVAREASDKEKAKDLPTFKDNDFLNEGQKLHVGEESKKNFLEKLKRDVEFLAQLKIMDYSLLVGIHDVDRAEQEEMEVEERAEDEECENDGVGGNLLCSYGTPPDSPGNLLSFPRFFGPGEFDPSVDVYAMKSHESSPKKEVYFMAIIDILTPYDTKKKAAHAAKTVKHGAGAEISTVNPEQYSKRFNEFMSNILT
Method: (§2) Within each well, 10 μl final reaction mixture contains 100 μM PI(5)P, 2 μg/ml PI5P4Kα, 10 μM ATP (in FIG. 1B, ATP concentration varied from 10 μM to 100 μM), 10 mM MgCl2, 0.1% CHAPS and 20 mM HEPES pH 7.3. […] Kinase assay based on PI(4,5)P2 (product) detection was carried out in a 50 μl assay mixture containing 40 μM PI(5)P, 0.4 μg/ml PI5P4Kα, 20 μM ATP (unless otherwise stated), 10 mM MgCl2, 20 mM HEPES pH 7.3, and 10 mCi [γ-^32P]-ATP for 1 h at RT. […] The reaction was terminated by 5 μl 12N HCl. After termination, 175 μl PBS buffer and 380 μl methanol/chloroform mix (1:1, v/v) containing 10 μg/ml bovine brain extract (type I; Folch Fraction I; Sigma Aldrich) were added. The lower organic phase, containing the extracted lipids, was collected and dried under vacuum. The dried lipids were re-suspended in 25 μl methanol/chloroform mix (2:1, v/v), and separated by thin-layer chromatography (TLC). For TLC, heat activated 1% potassium oxalate-coated silica gel 60 plates were used (20 cm×20 cm, Merck), and the running solvent contained water, acetic acid, methanol, acetone, and chloroform (3:32:24:30:64 mix by volume). Radiolabeled lipid product was quantified with a phosphor imager (Bio-Rad Molecular Imager FX). […] The inhibitor was usually incubated with the enzyme at RT for 20 min before the reaction was initiated.

PI5P4Kα [1] = target: T2, PI5P4Kα (Homo sapiens, UniProt P48426); assay: PI5P4Kα kinase assay, 32P-labelled PI(4,5)P2 product resolved by TLC
T2 sequence (P48426 1-406): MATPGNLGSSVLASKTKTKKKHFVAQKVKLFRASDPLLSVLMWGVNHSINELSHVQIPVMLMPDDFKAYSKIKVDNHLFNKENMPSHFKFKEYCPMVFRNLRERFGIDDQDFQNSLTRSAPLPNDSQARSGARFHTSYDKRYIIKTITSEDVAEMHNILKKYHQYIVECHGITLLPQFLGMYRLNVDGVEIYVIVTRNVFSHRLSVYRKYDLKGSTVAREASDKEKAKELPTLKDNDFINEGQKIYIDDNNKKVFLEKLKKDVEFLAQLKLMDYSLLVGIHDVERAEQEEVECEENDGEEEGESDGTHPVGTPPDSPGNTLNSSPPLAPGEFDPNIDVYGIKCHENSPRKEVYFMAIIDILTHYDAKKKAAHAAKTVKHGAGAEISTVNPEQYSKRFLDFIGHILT
Method: as §2

AMPK = assay: Western blot of ACC phosphorylation by AMPK in myotubes (FIG. 3F); format: cell-based
Method: as §1

myotubes = assay: Glucose consumption and lactate production in myotube culture media; format: cell-based
Method: To measure glucose consumption and lactate production, a total of 1×10^5 cells were seeded into each well of a 12-well plate and cultured in the presence of compound for 48 hrs. The culture media were collected and deproteinized by centrifugation using an Amicon Ultra centrifugal filter (3 kDa cut-off), while cells were lysed and used for protein concentration determination by BCA assay. The media were assayed immediately for glucose and lactate levels using colorimetric assay kits from BioVision following the manufacturer's protocols. The values were normalized against protein concentration. All measurements were made in triplicate.

L6 myotubes = assay: 2-deoxyglucose uptake; format: cell-based, rat; details: overnight treatment with 20 μM 7a or 1 mM metformin
Method: To measure 2-deoxyglucose (2-DG) uptake, L6 myotubes were treated with compound or DMSO control overnight in the absence of serum in α-MEM. Following treatment, cells were washed twice with KRH buffer (50 mM HEPES pH 7.4, 137 mM NaCl, 4.7 mM KCl, 1.85 mM CaCl2, 1.3 mM MgSO4) containing 0.1% BSA. Residual wash buffer was removed by aspiration. Cells were then incubated for 10 min at 37° C. in a KRH buffer containing 0.1% BSA, 5 mM unlabeled 2-DG and 2 μCi/ml [1,2-^3H(N)]-2-deoxy-D-glucose (PerkinElmer). The uptake was terminated by washing four times with ice-cold KRH buffer containing 0.1% BSA. Nonspecific 2-DG uptake into cells was determined in the presence of 10 μM cytochalasin B, which inhibits glucose transporters, and subtracted. The cells were lysed with 0.05 M NaOH for 2 hrs at 37° C. 10 μl cell lysate was used to quantify protein concentration by BCA assay. The remaining sample was transferred to a scintillation vial containing 3 ml Opti-Fluor liquid scintillation cocktail (PerkinElmer), and radioactivity was determined using a Beckman Coulter LS 6500 scintillation system and normalized against protein concentration.

PI5P4Kα [2] = target: T2, PI5P4Kα; assay: PI5P4Kα in vitro kinase assay based on ADP detection (ADP-Glo), kinetic studies; format: biochemical; set-up: made in house
Method: Lipid vesicles [2:1 mixture of DPPS and PI(5)P] were prepared by sonication and extrusion in a buffer containing 0.1% CHAPS, 20 mM HEPES pH 7.3, 200 mM NaCl, 20 mM MgCl2, aliquoted, and stored at −80° C. Immediately before assay, thawed lipid suspension was sonicated and extruded again, and mixed with PI5P4Kα freshly purified in the same buffer. […] 20 nl of library compound (10 mM DMSO solution) was transferred to the well by an Aquarius system (Tecan). The plates were shaken for 30 s. 1 μl ATP solution was then added to initiate the reaction (final concentrations: PI(5)P 100 μM; lipid kinase 2 μg/ml; ATP 40 μM; library compound 20 μM). After incubating at RT in the dark for 1 h, 5 μl ADP-Glom reagent (Promega) was added to stop the reaction. After 40 min further incubation, 10 μl Kinase Detection reagent (Promega) was added. After 30 min, the luminescence was measured with an EnVision Multimode Plate Reader.
In vitro kinase assay based on ADP (product) detection was performed similarly in a white solid-bottom 96-well plate (Corning 3600). Within each well, 10 μl final reaction mixture contains 100 μM PI(5)P, 2 μg/ml PI5P4Kα, 10 μM ATP (in FIG. 1B, ATP concentration varied from 10 μM to 100 μM), 10 mM MgCl2, 0.1% CHAPS and 20 mM HEPES pH 7.3. After reaction, 10 μl ADP-Glo™ reagent and 20 μl Kinase Detection reagent were used for luminescence reading. […]

PI5P4Kα [3] = target: T2, PI5P4Kα; assay: Competitive fluorescent binding assay with TNP-ATP; set-up: made in house; details: displacement of 10 μM TNP-ATP from 6.8 μM PI5P4Kα

`CS(=O)(=O)N1CCN(Cc2cc3nc(-c4cccc5[nH]ncc45)nc(N4CCOCC4)c3s2)CC1` [GDC-0941, reference compound] was tested, and the “insulin-induced Akt phosphorylation at Ser-473” value (C2Cl2 myotubes) was “eliminated”.

For `C[C@@H]1COCCN1c1cc(=O)n2c(n1)N(Cc1cncc(Cl)c1)[C@H](C(F)(F)F)CC2` [SAR405, reference compound], the “mTORC1 activation by amino acids” value (C2Cl2 myotubes) was “prevented”.

Work on `CN1C(=O)[C@@H](CC2CCCC2)N(C2CCCC2)c2nc(Nc3cc(F)c(C(=O)O)c(F)c3)ncc21` [7i, (R)-4-((8-cyclopentyl-7-(cyclopentylmethyl)-5-methyl-6-oxo-5,6,7,8-tetrahydropteridin-2-yl)amino)-2,6-difluorobenzoic acid] yielded a pKi (PI5P4Kβ) of 6.82 to 7.12 and a pKi (PI5P4Kα [1]) of 6.96 to 7.26.

In the case of `CC[C@@H]1C(=O)N(C)c2cnc(Nc3ccc(C(=O)NC4CCN(C)CC4)cc3OC)nc2N1C1CCCC1` [BI-2536], the “ACC phosphorylation / AMPK activation” value (AMPK) was “did not increase; also recorded: did not induce”.

With `CN(C)C(=N)N=C(N)N` [metformin, reference compound] the “molar fraction of consumed glucose used for lactate fermentation” value (myotubes; 48 hours) was 41%, the “lactate accumulated in the media” value (myotubes; 48 hours after treatment) was 8.6 mM and the “reduction of glucose concentration in the media” value (myotubes; 48 hours after treatment) was 10.6 mM. The “rate of glucose uptake (labeled 2-deoxyglucose)” value (L6 myotubes) was “doubled”.

With `CN1C(=O)[C@@H](CC2CCCCC2)N(C2CCCC2)c2nc(Nc3cc(Cl)c(O)c(Cl)c3)ncc21` [7b, (R)-7-(cyclohexylmethyl)-8-cyclopentyl-2-((3,5-dichloro-4-hydroxyphenyl)amino)-5-methyl-7,8-dihydropteridin-6(5H)-one] the “potency/affinity for PI5P4Kβ in vitro” value (PI5P4Kβ) was “no effect”, the “selectivity between PI5P4Kα and PI5P4Kβ” value (PI5P4Kβ) was “more specific for PI5P4Kβ; also recorded: more potent against PI5P4Kβ than PI5P4Kα” and the “ACC phosphorylation / AMPK activation” value (AMPK) was “activated; also recorded: enhanced”. For the same compound, the “potency/affinity for PI5P4Kα in vitro” value (PI5P4Kα [1]) was “weaken the affinity”.

Work on `CN1C(=O)[C@@H](Cc2ccccn2)N(C2CCCC2)c2nc(Nc3ncc(C(=O)O)s3)ncc21` [7j, (R)-2-((8-cyclopentyl-5-methyl-6-oxo-7-(pyridin-2-ylmethyl)-5,6,7,8-tetrahydropteridin-2-yl)amino)thiazole-5-carboxylic acid] yielded a pKi (PI5P4Kβ) of 6.10 to 6.40 and a pKi (PI5P4Kα [1]) of 7.00 to 7.30.

With `CC(C)CCN1c2nc(Nc3cc(F)c(O)c(F)c3)ncc2N(C)C(=O)C1C` (stereo not shown) [BI-D1870] the pKi (PI5P4Kα [2]; competitive with ATP) was about 6.00, the “ACC phosphorylation / AMPK activation” value (AMPK) was “did not increase; also recorded: did not induce” and the pKd (PI5P4Kα [3]) was about 5.89.

`CN1C(=O)[C@@H](CC2CCCC2)N(C2CCCC2)c2nc(Nc3csc(C(=O)O)c3)ncc21` [7h, (R)-4-((8-cyclopentyl-7-(cyclopentylmethyl)-5-methyl-6-oxo-5,6,7,8-tetrahydropteridin-2-yl)amino)thiophene-2-carboxylic acid] showed a pKi (PI5P4Kβ) of 6.80 to 7.10 and a pKi (PI5P4Kα [1]) of 6.66 to 6.96.

`CN1C(=O)[C@@H](CC2CCCC2)N(C2CCCC2)c2nc(Nc3ncc(C(=O)O)s3)ncc21` [7g, (R)-2-((8-cyclopentyl-7-(cyclopentylmethyl)-5-methyl-6-oxo-5,6,7,8-tetrahydropteridin-2-yl)amino)thiazole-5-carboxylic acid] showed a pKi (PI5P4Kβ) of 6.55 to 7.00 and a pKi (PI5P4Kα [1]) of 7.05 to 7.52.

In the case of `CN1C(=O)[C@@H](Cc2ccccn2)N(C2CCCC2)c2nc(Nc3ccc4[nH]nnc4c3)ncc21` [7k, (R)-2-((1H-benzo[d][1,2,3]triazol-5-yl)amino)-8-cyclopentyl-5-methyl-7-(pyridin-2-ylmethyl)-7,8-dihydropteridin-6(5H)-one], the pKi (PI5P4Kβ) was 6.70 to 7.00.

For `CN1C(=O)[C@@H](Cc2ccccn2)N(C2CCCC2)c2nc(Nc3cc(Cl)c(O)c(Cl)c3)ncc21` [7e, (R)-8-cyclopentyl-2-((3,5-dichloro-4-hydroxyphenyl)amino)-7-(pyridine-2-ylmethyl)-5-methyl-7,8-dihydropteridin-6(5H)-one], the pKi (PI5P4Kβ) was 7.22 to 7.70 and the pKi (PI5P4Kα [1]) was 7.22 to 7.70.

`CN1C(=O)[C@@H](CC2CCCC2)N(C2CCCC2)c2nc(Nc3ccc4[nH]nnc4c3)ncc21` [7f, (R)-2-((1H-benzo[d][1,2,3]triazol-5-yl)amino)-8-cyclopentyl-7-(cyclopentylmethyl)-5-methyl-7,8-dihydropteridin-6(5H)-one] showed a pKi (PI5P4Kβ) of 6.64 to 7.10 and a pKi (PI5P4Kα [1]) of 6.15 to 6.70.

With `CC[C@@H]1C(=O)N(C)c2cnc(Nc3ccc(C(=O)N[C@H]4CC[C@H](N5CCN(CC6CC6)CC5)CC4)cc3OC)nc2N1C(C)C` [volasertib] the “Kis for PI5P4Kα compared with BI-D1870” value (PI5P4Kα [2]; ATP 10 μM) was “slightly higher”.
